{"source": "patent US12252497B2", "about": "“Ras inhibitors” (Revolution Medicines, Inc., priority 2021, dated 2025)", "conditions": "ester bond, 18-membered ring", "note": "Like-named read-outs stand apart in the source and are kept apart here.", "data": [{"smiles": "CO[C@@H](C)c1ncc(N2CCN3CCCC[C@@H]3C2)cc1-c1c2c3cc(ccc3n1CC(F)(F)F)-c1cccc(c1)C[C@H](NC(=O)OC(C)(C)C)C(=O)N1CCC[C@H](N1)C(=O)OCC(C)(C)C2", "values": [{"measurement": "ring closure, isolated yield", "setting": "from CO[C@@H](C)c1ncc(N2CCN3CCCC[C@@H]3C2)cc1-c1c(CC(C)(C)CO)c2cc(-c3cccc(C[C@H](NC(=O)OC(C)(C)C)C(=O)N4CCC[C@@H](C(=O)O)N4)c3)ccc2n1CC(F)(F)F, EDCI.HCl/HOBt/DIPEA, DCM, 12.9 mM, 0.0 °C", "result": 65, "unit": "%"}]}, {"smiles": "CCn1c(-c2cc(N3CCN(C4CC4)CC3)cnc2[C@H](C)OC)c2c3cc(ccc31)-c1cccc(c1)C[C@H](NC(=O)OC(C)(C)C)C(=O)N1CCC[C@H](N1)C(=O)OCC(C)(C)C2", "values": [{"measurement": "ring closure, isolated yield", "setting": "from CCn1c(-c2cc(N3CCN(C4CC4)CC3)cnc2[C@H](C)OC)c(CC(C)(C)CO)c2cc(-c3cccc(C[C@H](NC(=O)OC(C)(C)C)C(=O)N4CCC[C@@H](C(=O)O)N4)c3)ccc21, EDCI/HOBt/DIEA, DCM, 14.4 mM, 25.0 °C", "result": 64, "unit": "%"}]}, {"smiles": "CCn1c(-c2cc(N3CCN4CCOC[C@@H]4C3)cnc2[C@H](C)OC)c2c3cc(ccc31)N1CCO[C@@H](C[C@H](NC(=O)OC(C)(C)C)C(=O)N3CCC[C@H](N3)C(=O)OCC(C)(C)C2)C1", "values": [{"measurement": "ring closure, isolated yield", "setting": "from CCn1c(-c2cc(N3CCN4CCOC[C@@H]4C3)cnc2[C@H](C)OC)c(CC(C)(C)CO)c2cc(N3CCO[C@@H](C[C@H](NC(=O)OC(C)(C)C)C(=O)N4CCC[C@@H](C(=O)O)N4)C3)ccc21, EDCI/HOBt/NMM, DCM, 11.2 mM, 25.0 °C", "result": 51, "unit": "%"}]}, {"smiles": "CCn1c(-c2cc(N3CCN4CCCC[C@@H]4C3)cnc2[C@H](C)OC)c2c3cc(ccc31)-c1cc(cc(C(F)F)c1)C[C@H](NC(=O)OC(C)(C)C)C(=O)N1CCC[C@H](N1)C(=O)OCC(C)(C)C2", "values": [{"measurement": "ring closure, isolated yield", "setting": "from CCn1c(-c2cc(N3CCN4CCCC[C@@H]4C3)cnc2[C@H](C)OC)c(CC(C)(C)CO)c2cc(-c3cc(C[C@H](NC(=O)OC(C)(C)C)C(=O)N4CCC[C@@H](C(=O)O)N4)cc(C(F)F)c3)ccc21, EDCI/HOBt/DIEA, DCM, 5.27 mM, 25.0 °C", "result": 90, "unit": "%"}]}, {"smiles": "CCn1c(-c2cc(N3CCN4CCOC[C@@H]4C3)cnc2[C@H](C)OC)c2c3cc(ccc31)-c1cc(CF)cc(c1)C[C@H](NC(=O)OC(C)(C)C)C(=O)N1CCC[C@H](N1)C(=O)OCC(C)(C)C2", "values": [{"measurement": "ring closure, isolated yield", "setting": "from CCn1c(-c2cc(N3CCN4CCOC[C@@H]4C3)cnc2[C@H](C)OC)c(CC(C)(C)CO)c2cc(-c3cc(CF)cc(C[C@H](NC(=O)OC(C)(C)C)C(=O)N4CCC[C@@H](C(=O)O)N4)c3)ccc21, EDCI/HOBt/DIEA, DCM, 11.3 mM, 0.0 °C", "result": 69, "unit": "%"}]}, {"smiles": "CCn1c(-c2cc(N3CCN4CCCC[C@@H]4C3)cnc2[C@H](C)OC)c2c3cc(ccc31)N1CCO[C@@H](C[C@H](NC(=O)OC(C)(C)C)C(=O)N3CCC[C@H](N3)C(=O)OCC(C)(C)C2)C1", "values": [{"measurement": "ring closure, isolated yield", "setting": "from CCn1c(-c2cc(N3CCN4CCCC[C@@H]4C3)cnc2[C@H](C)OC)c(CC(C)(C)CO)c2cc(N3CCO[C@@H](C[C@H](NC(=O)OC(C)(C)C)C(=O)N4CCC[C@@H](C(=O)O)N4)C3)ccc21, EDCI/HOBt/DIPEA, DMF, 11.2 mM, 25.0 °C", "result": 73, "unit": "%"}]}, {"smiles": "CCn1c(-c2cc(N3CCN(C(=O)OCc4ccccc4)CC3)cnc2[C@H](C)OC)c2c3cc(ccc31)-c1csc(n1)C[C@H](NC(=O)OC(C)(C)C)C(=O)N1CCC[C@H](N1)C(=O)OCC(C)(C)C2", "values": [{"measurement": "ring closure, isolated yield", "setting": "from CCn1c(-c2cc(N3CCN(C(=O)OCc4ccccc4)CC3)cnc2[C@H](C)OC)c(CC(C)(C)CO)c2cc(-c3csc(C[C@H](NC(=O)OC(C)(C)C)C(=O)N4CCC[C@@H](C(=O)O)N4)n3)ccc21, EDCI/HOBt/DIPEA, MeCN, 10.3 mM, 25.0 °C", "result": 55, "unit": "%"}]}, {"smiles": "CCn1c(-c2cc(N3CCN(C4CC4)CC3)cnc2[C@H](C)OC)c2c3cc(ccc31)N1CCO[C@@H](C[C@H](NC(=O)OCc3ccccc3)C(=O)N3CCC[C@H](N3)C(=O)OCC(C)(C)C2)C1", "values": [{"measurement": "ring closure, isolated yield", "setting": "from CCn1c(-c2cc(N3CCN(C4CC4)CC3)cnc2[C@H](C)OC)c(CC(C)(C)CO)c2cc(N3CCO[C@@H](C[C@H](NC(=O)OCc4ccccc4)C(=O)N4CCC[C@@H](C(=O)O)N4)C3)ccc21, EDCI/HOBt/DIEA, DCM, 11.3 mM, 30.0 °C", "result": 50, "unit": "%"}]}, {"smiles": "CCn1c(-c2cc(N3CCN4CCC[C@@H]4C3)cnc2[C@H](C)OC)c2c3cc(ccc31)-c1csc(n1)C[C@H](NC(=O)OC(C)(C)C)C(=O)N1CCC[C@H](N1)C(=O)OCC(C)(C)C2", "values": [{"measurement": "ring closure, isolated yield", "setting": "from CCn1c(-c2cc(N3CCN4CCC[C@@H]4C3)cnc2[C@H](C)OC)c(CC(C)(C)CO)c2cc(-c3csc(C[C@H](NC(=O)OC(C)(C)C)C(=O)N4CCC[C@@H](C(=O)O)N4)n3)ccc21, EDCI/HOBt/DIEA, DCM, 111.6 mM, 25.0 °C, 16.0 h", "result": 37, "unit": "%"}]}, {"smiles": "CCn1c(-c2cc(N3CCN4CCC[C@@H]4C3)cnc2[C@H](C)OC)c2c3cc(ccc31)-c1cccc(c1)C[C@H](NC(=O)OC(C)(C)C)C(=O)N1CCC[C@H](N1)C(=O)OCC(C)(C)C2", "values": [{"measurement": "ring closure, isolated yield", "setting": "from CCn1c(-c2cc(N3CCN4CCC[C@@H]4C3)cnc2[C@H](C)OC)c(CC(C)(C)CO)c2cc(-c3cccc(C[C@H](NC(=O)OC(C)(C)C)C(=O)N4CCC[C@@H](C(=O)O)N4)c3)ccc21, EDCI/HOBt/DIPEA, DCM, 16.7 mM, 25.0 °C", "result": 42, "unit": "%"}]}, {"smiles": "CO[C@@H](C)c1ncc(N2CCN3CCOC[C@@H]3C2)cc1-c1c2c3cc(ccc3n1CC(F)(F)F)-c1csc(n1)C[C@H](NC(=O)OC(C)(C)C)C(=O)N1CCC[C@H](N1)C(=O)OCC(C)(C)C2", "values": [{"measurement": "ring closure, isolated yield", "setting": "from CO[C@@H](C)c1ncc(N2CCN3CCOC[C@@H]3C2)cc1-c1c(CC(C)(C)CO)c2cc(-c3csc(C[C@H](NC(=O)OC(C)(C)C)C(=O)N4CCC[C@@H](C(=O)O)N4)n3)ccc2n1CC(F)(F)F, EDCI/HOBt/DIEA, DCM, 10.6 mM, 25.0 °C", "result": 64, "unit": "%"}]}, {"smiles": "CCn1c(-c2cc(N3CCN4CCOC[C@@H]4C3)cnc2[C@H](C)OC)c2c3cc(ccc31)-c1cc(cc(C(F)F)c1)C[C@H](NC(=O)OC(C)(C)C)C(=O)N1CCC[C@H](N1)C(=O)OCC(C)(C)C2", "values": [{"measurement": "ring closure, isolated yield", "setting": "from CCn1c(-c2cc(N3CCN4CCOC[C@@H]4C3)cnc2[C@H](C)OC)c(CC(C)(C)CO)c2cc(-c3cc(C[C@H](NC(=O)OC(C)(C)C)C(=O)N4CCC[C@@H](C(=O)O)N4)cc(C(F)F)c3)ccc21, EDCI/HOBt/DIEA, DCM, 10.7 mM, 25.0 °C", "result": 42, "unit": "%"}]}, {"smiles": "CCn1c(-c2cc(N3CCN4CCOC[C@@H]4C3)cnc2[C@H](C)OC)c2c3cc(ccc31)-c1csc(n1)C[C@H](NC(=O)OC(C)(C)C)C(=O)N1CCC[C@H](N1)C(=O)OCC(C)(C)C2", "values": [{"measurement": "ring closure, isolated yield", "setting": "from CCn1c(-c2cc(N3CCN4CCOC[C@@H]4C3)cnc2[C@H](C)OC)c(CC(C)(C)CO)c2cc(-c3csc(C[C@H](NC(=O)OC(C)(C)C)C(=O)N4CCC[C@@H](C(=O)O)N4)n3)ccc21, EDCI/HOBt/DIPEA, DCM, 11.3 mM, 25.0 °C", "result": 52, "unit": "%"}]}, {"smiles": "CCn1c(-c2cc(N3CCN4CCCC[C@@H]4C3)cnc2[C@H](C)OC)c2c3cc(ccc31)-c1csc(n1)C[C@H](NC(=O)OC(C)(C)C)C(=O)N1CCC[C@H](N1)C(=O)OCC(C)(C)C2", "values": [{"measurement": "ring closure, isolated yield", "setting": "from CCn1c(-c2cc(N3CCN4CCCC[C@@H]4C3)cnc2[C@H](C)OC)c(CC(C)(C)CO)c2cc(-c3csc(C[C@H](NC(=O)OC(C)(C)C)C(=O)N4CCC[C@@H](C(=O)O)N4)n3)ccc21, EDCI/HOBt/DIPEA, DCM, 11.3 mM, 25.0 °C", "result": 49, "unit": "%"}]}, {"smiles": "CO[C@@H](C)c1ncc(N2CCN3CCOC[C@@H]3C2)cc1-c1c2c3cc(ccc3n1CC(F)(F)F)N1CCO[C@@H](C[C@H](NC(=O)OC(C)(C)C)C(=O)N3CCC[C@H](N3)C(=O)OCC(C)(C)C2)C1", "values": [{"measurement": "ring closure, isolated yield", "setting": "from CO[C@@H](C)c1ncc(N2CCN3CCOC[C@@H]3C2)cc1-c1c(CC(C)(C)CO)c2cc(N3CCO[C@@H](C[C@H](NC(=O)OC(C)(C)C)C(=O)N4CCC[C@@H](C(=O)O)N4)C3)ccc2n1CC(F)(F)F, EDCI/HOBt/NMM, DCM, 10.6 mM, 25.0 °C", "result": 48, "unit": "%"}]}, {"smiles": "CO[C@@H](C)c1ncc(N2CCN(C3CC3)CC2)cc1-c1c2c3cc(ccc3n1CC(F)(F)F)C1=CCCN(C1)C[C@H](NC(=O)OC(C)(C)C)C(=O)N1CCC[C@H](N1)C(=O)OCC(C)(C)C2", "values": [{"measurement": "ring closure, isolated yield", "setting": "from CO[C@@H](C)c1ncc(N2CCN(C3CC3)CC2)cc1-c1c(CC(C)(C)CO)c2cc(C3=CCCN(C[C@H](NC(=O)OC(C)(C)C)C(=O)N4CCC[C@@H](C(=O)O)N4)C3)ccc2n1CC(F)(F)F, EDCI/HOBt/DIEA, DCM, 10.8 mM, 25.0 °C", "result": 73, "unit": "%"}]}]}
